Experiment in all cases: AK assay 384-well format, Prestwick library screening
The subject of one test is E. cloacae. Format: cell-based, Enterobacter cloacae. As to conditions: 50 μM final drug concentration; for fold induction at 50 µM: Enterobacter cloacae, 3 h.
A further test deals with E. faecium. Format: cell-based, Enterococcus faecium. As to conditions: 50 μM final drug concentration; for fold induction at 50 µM: Enterococcus faecium, 3 h.
The subject of test [1] is S. aureus strain USA300-0114. Format: cell-based, Staphylococcus aureus. As to conditions: 50 μM final drug concentration; for fold induction at 50 µM: Staphylococcus aureus, USA300, 3 h.
For the next test, the system named is E. coli. Format: cell-based, Escherichia coli. As to conditions: 50 μM final drug concentration; for fold induction at 50 µM: Escherichia coli, 3 h.
In test [2] the test system is A. baumannii strain 98-37-09. Format: cell-based, Acinetobacter baumannii. As to conditions: 50 μM final drug concentration; for fold induction at 50 µM: Acinetobacter baumannii, 983709, 3 h.
In the next test the test system is K. pneumoniae. Format: cell-based, Klebsiella pneumoniae. As to conditions: 50 μM final drug concentration; for fold induction at 50 µM: Klebsiella pneumoniae, 3 h.
A further test relates to P. aeruginosa. Format: cell-based, Pseudomonas aeruginosa. As to conditions: 50 μM final drug concentration; for fold induction at 50 µM: Pseudomonas aeruginosa, 3 h.
The mark [3] stands for this setting: planktonic E. cloacae, positive cutoff 3-fold increase, read-out: AK-based Prestwick library screening result, E. cloacae (fold increase in extracellular AK activity).
[4] abbreviates: planktonic E. faecium, positive cutoff 3-fold increase, read-out: AK-based Prestwick library screening result, E. faecium (fold increase in extracellular AK activity).
[5] abbreviates: planktonic S. aureus, positive cutoff 3-fold increase, read-out: AK-based Prestwick library screening result, S. aureus (fold increase in extracellular AK activity).
Setting [6] is: planktonic A. baumannii, positive cutoff 3-fold increase, read-out: AK-based Prestwick library screening result, A. baumannii (fold increase in extracellular AK activity).
Setting [7] is: planktonic K. pneumoniae, positive cutoff 3-fold increase, read-out: AK-based Prestwick library screening result, K. pneumoniae (fold increase in extracellular AK activity).
[8] abbreviates: planktonic P. aeruginosa, positive cutoff 3-fold increase, read-out: AK-based Prestwick library screening result, P. aeruginosa (fold increase in extracellular AK activity).

Six molecules from patent publication US10004701B2, “Methods and compositions for treating infection” (UNIVERSITY OF ROCHESTER, priority 2012, dated 2018) can be followed below.

Counter-ions that a name gives are not always drawn. Like-named read-outs stand apart in the source and are kept apart here.

Take Verteporfin: in the test with E. cloacae (planktonic E. cloacae, positive cutoff 3-fold increase), the “AK-based Prestwick library screening result, E. cloacae (fold increase in extracellular AK activity)” value is 1.6. Moreover, the “AK-based Prestwick library screening result, E. faecium (fold increase in extracellular AK activity)” value in the test with E. faecium (planktonic E. faecium, positive cutoff 3-fold increase) was found to be 1.2. In addition, the “AK-based Prestwick library screening result, S. aureus (fold increase in extracellular AK activity)” value in test [1] (planktonic S. aureus, positive cutoff 3-fold increase) amounted to 0.5. In the test with E. coli (planktonic E. coli, positive cutoff 3-fold increase), the “AK-based Prestwick library screening result, E. coli (fold increase in extracellular AK activity)” value worked out at 0.7. Besides, in test [2] (planktonic A. baumannii, positive cutoff 3-fold increase), the “AK-based Prestwick library screening result, A. baumannii (fold increase in extracellular AK activity)” value came out at 0.9. The “AK-based Prestwick library screening result, K. pneumoniae (fold increase in extracellular AK activity)” value in the test with K. pneumoniae (planktonic K. pneumoniae, positive cutoff 3-fold increase) is listed as 0.8. For the same molecule, in the test on P. aeruginosa (planktonic P. aeruginosa, positive cutoff 3-fold increase), the “AK-based Prestwick library screening result, P. aeruginosa (fold increase in extracellular AK activity)” value was 0.8.
With `CCC1(CC)C(=O)C=CNC1=O` [Pyrithyldione], the fold induction at 50 µM with E. cloacae (planktonic, […], read-out: AK-based Prestwick Library Screening Results, E. cloacae (fold increase in extracellular AK activity)) turned out to be 0.7; in the test with E. faecium (planktonic, […], read-out: AK-based Prestwick Library Screening Results, E. faecium (fold increase in extracellular AK activity)) it was 0.8; in test [1] (planktonic, […], read-out: AK-based Prestwick Library Screening Results, S. aureus (fold increase in extracellular AK activity)) it was 0.6; in the test with E. coli (planktonic, […], read-out: AK-based Prestwick Library Screening Results, E. coli (fold increase in extracellular AK activity)) it was 0.7; in test [2] (planktonic, […], read-out: AK-based Prestwick Library Screening Results, A. baumannii (fold increase in extracellular AK activity)), 0.5; in the test on K. pneumoniae (planktonic, […], read-out: AK-based Prestwick Library Screening Results, K. pneumoniae (fold increase in extracellular AK activity)) it was 0.6. For the same molecule, the fold induction at 50 µM in the test with P. aeruginosa (planktonic, […], read-out: AK-based Prestwick Library Screening Results, P. aeruginosa (fold increase in extracellular AK activity)) came out at 0.6.
Turning to `CCCCN(CCCC)CCC(O)c1cc2c(Cl)cc(Cl)cc2c2cc(C(F)(F)F)ccc12` (stereo not drawn) [Halofantrine hydrochloride], the fold induction at 50 µM with E. cloacae (setting [3]) came out at 1.3; with E. faecium (setting [4]), 1; in test [1] (setting [5]), 1.2; with E. coli (planktonic E. coli, positive cutoff 3-fold increase, read-out: AK-based Prestwick library screening result, E. coli (fold increase in extracellular AK activity)) it was 1; in test [2] (setting [6]), 1.3; with K. pneumoniae (setting [7]), 1.1. Further, the fold induction at 50 µM in the test with P. aeruginosa (setting [8]) was 1.1.
`CN[C@@H]1[C@H](O[C@H]2[C@H](O[C@H]3[C@H](O)[C@@H](O)[C@H](NC(=N)N)[C@@H](O)[C@@H]3NC(=N)N)O[C@@H](C)[C@]2(O)CO)O[C@@H](CO)[C@H](O)[C@H]1O` [Dihydrostreptomycin sulfate]: the fold induction at 50 µM in the test with E. cloacae (planktonic E. cloacae, 384-well, cutoff for positive-scoring molecules 3-fold increase, read-out: AK-based Prestwick Library Screening Results: E. cloacae (increase in extracellular AK activity)) is 1.3; in the test with E. faecium (planktonic E. faecium, 384-well, cutoff for positive-scoring molecules 3-fold increase, read-out: AK-based Prestwick Library Screening Results: E. faecium (increase in extracellular AK activity)) it was 1; in test [1] (planktonic S. aureus, 384-well, cutoff for positive-scoring molecules 3-fold increase, read-out: AK-based Prestwick Library Screening Results: S. aureus (increase in extracellular AK activity)) it was 1.2; with E. coli (planktonic E. coli, 384-well, cutoff for positive-scoring molecules 3-fold increase, read-out: AK-based Prestwick Library Screening Results: E. coli (increase in extracellular AK activity)), 1.2; in test [2] (planktonic A. baumannii, 384-well, cutoff for positive-scoring molecules 3-fold increase, read-out: AK-based Prestwick Library Screening Results: A. baumannii (increase in extracellular AK activity)) it was 1.2; in the test with K. pneumoniae (planktonic K. pneumoniae, 384-well, cutoff for positive-scoring molecules 3-fold increase, read-out: AK-based Prestwick Library Screening Results: K. pneumoniae (increase in extracellular AK activity)), 0.7. The fold induction at 50 µM with P. aeruginosa (planktonic P. aeruginosa, 384-well, cutoff for positive-scoring molecules 3-fold increase, read-out: AK-based Prestwick Library Screening Results: P. aeruginosa (increase in extracellular AK activity)) came to 0.9.
With `CCc1oc2ccccc2c1C(=O)c1cc(Br)c(O)c(Br)c1` [Benzbromarone], the fold induction at 50 µM is 1.4 in the test on E. cloacae (planktonic, cutoff for positive 3-fold increase, read-out: AK-based Prestwick Library Screening Results, E. cloacae (fold increase in extracellular AK activity)); 1.2 in the test on E. faecium (planktonic, cutoff for positive 3-fold increase, read-out: AK-based Prestwick Library Screening Results, E. faecium (fold increase in extracellular AK activity)); 0.4 in test [1] (planktonic, cutoff for positive 3-fold increase, read-out: AK-based Prestwick Library Screening Results, S. aureus (fold increase in extracellular AK activity)); 1.1 in the test on E. coli (planktonic, cutoff for positive 3-fold increase, read-out: AK-based Prestwick Library Screening Results, E. coli (fold increase in extracellular AK activity)); 1.4 in test [2] (planktonic, cutoff for positive 3-fold increase, read-out: AK-based Prestwick Library Screening Results, A. baumannii (fold increase in extracellular AK activity)); 0.9 in the test with K. pneumoniae (planktonic, cutoff for positive 3-fold increase, read-out: AK-based Prestwick Library Screening Results, K. pneumoniae (fold increase in extracellular AK activity)). Besides, the fold induction at 50 µM with P. aeruginosa (planktonic, cutoff for positive 3-fold increase, read-out: AK-based Prestwick Library Screening Results, P. aeruginosa (fold increase in extracellular AK activity)) is 1.5.
Consider `CC(=O)O[C@H]1C[C@@H]2CC[C@@H]3[C@H](CC[C@@]4(C)[C@H]3C[C@H]([N+]3(C)CCCCC3)[C@@H]4OC(C)=O)[C@@]2(C)C[C@@H]1[N+]1(C)CCCCC1` [Pancuronium bromide], for which the fold induction at 50 µM in the test on E. cloacae (setting [3]) is 1.6; in the test with E. faecium (setting [4]), 1; in test [1] (setting [5]), 1.1; with E. coli (planktonic E. coli, […], read-out: AK-based Prestwick library screening result, E. coli (fold increase in extracellular AK activity)), 1.1; in test [2] (setting [6]), 1.1; with K. pneumoniae (setting [7]) it was 1. The fold induction at 50 µM with P. aeruginosa (setting [8]) worked out at 0.9.
